“Also recorded” adds a separate entry of the source.
Columns and labels:
Format in all cases: in vivo
[1] = SPME/GC-MS of PMD generated by hydrolysis of PMDL placed on the skin; conditions: 100 μg/cm^2 PMDL on skin, sampling 0 to 300 min, FIG. 3a
Experimental: Solid Phase Microextraction (SPME) is a sample preparation technique which has been used for trapping volatiles. In the subject invention, SPME was used to extract and concentrate PMD vapour (by-product of PMDL hydrolysis) in the headspace. The extracted analytes were then analyzed by Gas Chromatography-Mass Spectroscopy (GC-MS). The SPME fiber used here was from Supelco, a 2.0 cm long, StableFlex fiber (23-gauge needle), 50/30 divinylenzene/carboxene on polydimethylsiloxane. Agilent 6890 Gas Chromatography equipped with Agilent 5973 Mass Selective Detector and Chemstation, G1701CA software were used for analyzing and identifying PMD. GC was equipped with a 0.25 […] HP-5 capillary column with 0.25 micrometer of cross-linked 5% Phenyl Methyl Siloxane. The GC oven was programmed to increase its temperature at 2 min from the initial temperature of 60° C. to 300° C. at 6° C./min. The injector temperature and the head pressure were 250° C. and 8.6 psi, respectively. The flow rate of the carrier gas (helium) was 1 mL/min The total flow rate was set at 25 mL/min Purge was off for 0.5 min, i.e. from a split mode into a splitless mode after the program was started. Agilent 5973 Mass Selective Detector with an ion source by an electron impact (El) data system was used for mass spectrometric identification. […]

[2] = Ethanol extraction of PMD- and PMDL-treated skin followed by GC-MS
Experimental: PMDL standard and ethanol skin extracts were also analyzed by GC-MS. The injection mode for PMDL was a split mode at 10:1 split ratio. The rest of conditions were the same as the ones used for PMD analysis by GC-MS as are listed above. The SPME apparently is a tube (e.g., dome or other like structure) strapped to measured area (e.g., arm) with an opening (e.g., at top) to insert analytical extractor which is essentially a needle used to trap/absorb volatiles released in the apparatus.
(§1) In this set, individual stock solutions of PMD and PMDL were prepared by placing 0.0978 g PMD and 0.1095 g in 5 mL of ethanol, respectively. Then five areas of skin, about 7 cm^2 on each arm, were selected. One of the five spots on each arm remained untreated as control and marked as a blank. The remaining four areas on the right arm were dosed with 32 μL PMDL and the remaining four areas on the left arm were dosed with 36 μL of PMD. Untreated area 1, and the treated area on each arm marked as 2, 3, 4, and 5, were then extracted with 4 mL of ethanol for a period of 3 min at 0, 15, 60 and 150 min intervals, respectively. Collected extracts were then analyzed by GC-MS for their PMD and PMDL and by APCI-MS for their linoleic acid contents (FIGS. 4, 5, 6 and 7). FIG. 4 is plot of PMD, FIG. 5 is plot of PMDL; and FIGS. 6 and 7 are plots for linoleic acid.

[3] = Ethanol extraction of PMDL-treated skin followed by APCI-MS for linoleic acid; conditions: FIGS. 6 and 7
Experimental: as §1, with “Another set of experiments was conducted to confirm the results obtained earlier from SPME-GC for PMD & PMDL and also to confirm hydrolysis of PMDL into linoleic acid and PMD on the skin by ethanol extraction of the skin followed by GC-MS and APCI-MS analysis of the collected extracts. In” for “In”, “FIG. 4 is plot of PMD, FIG. 5 is plot of PMDL; and FIGS. 6 and 7 are plots for linoleic acid.” left out
APCI-MS was used to analyze linoleic acid in ethanol skin extracts. […] Samples from the last set of experiments, as described in the […] were analyzed for their linoleic acid level using this technique. Each extracted sample was analyzed in triplicate.

[4] = SPME/GC-MS of headspace above forearm skin dosed with PMD (evaporation of PMD)
Experimental: Solid Phase Microextraction (SPME) is a sample preparation technique which has been used for trapping volatiles. In the subject invention, SPME was used to extract and concentrate PMD vapour (by-product of PMDL hydrolysis) in the headspace. The extracted analytes were then analyzed by Gas Chromatography-Mass Spectroscopy (GC-MS). The SPME fiber used here was from Supelco, a 2.0 cm long, StableFlex fiber (23-gauge needle), 50/30 divinylenzene/carboxene on polydimethylsiloxane. Agilent 6890 Gas Chromatography equipped with Agilent 5973 Mass Selective Detector and Chemstation, G1701CA software were used for analyzing and identifying PMD. GC was equipped with a 0.25 […] HP-5 capillary column with 0.25 micrometer of cross-linked 5% Phenyl Methyl Siloxane. The GC oven was programmed to increase its temperature at 2 min from the initial temperature of 60° C. to 300° C. at 6° C./min. The injector temperature and the head pressure were 250° C. and 8.6 psi, respectively. The flow rate of the carrier gas (helium) was 1 mL/min The total flow rate was set at 25 mL/min Purge was off for 0.5 min, i.e. from a split mode into a splitless mode after the program was started. Agilent 5973 Mass Selective Detector with an ion source by an electron impact (El) data system was used for mass spectrometric identification. The detector was used in a scan mode to scan mass ranging from a Low Mass of 40 to a High Mass of 550. Solvent delay time was 3.5 min. Total sample run time was 60 min.
To determine the extent of evaporation of PMD from the skin matrix over a period of time (correlating to amount of PMD produced by hydrolysis from PMD-L), a number of experiments were carried out. In these experiments, SPME fiber was inserted into a headspace of a glass semi-ball chamber fastened on forearm by an elastic band. […]
For a first set of SPME experiments, a PMD solution at concentration of 21800 μg/mL was prepared by placing 0.218 g of PMD crystals in 10 mL of absolute ethanol. […] The SPME glass chamber and fibers were then removed and the SPME fiber were analyzed by GC-MS for measurement of PMD. […]

Molecule | PMD signal generated from hydrolysis of PMDL on the skin over time (SPME/GC-MS) [1] | PMD signal generated from hydrolysis of PMDL on the skin over time (SPME/GC-MS) ([1]; listed as PMD-L) | levels of PMDL on PMDL treated skin (GC-MS peak area of ethanol extracts) ([2]; leave on time 0 to 150 min, FIG. 5) | level of PMD on PMDL treated skin ([2]; over a 150 minute period) | linoleic acid level on PMDL treated skin over time ([3]; APCI-MS of ethanol extracts at 0, 15, 60 and 150 min) | level of linoleic acid in PMDL treated skin compared to untreated skin (blank) ([3]; APCI-MS of ethanol extracts) | time after which active is no longer present ([2]; PMD delivered in non-ester form, FIG. 4) [h] | PMD levels on PMD treated skin (GC-MS peak area of ethanol extracts) ([2]; leave on time 0 to 150 minutes, FIG. 4) | levels of PMD on the skin over leave on time (SPME/GC-MS) ([4]; 40 μg/cm^2 PMD applied neat, 0 to 300 minutes, FIG. 3b) | time over which PMD signal was followed and detected ([4]; 40 μg/cm^2 PMD on forearm skin, SPME extraction time 30 min, FIG. 3b) | time after which PMD signal could not be detected ([4]; 40 μg/cm^2 PMD on forearm skin, SPME sampling time 5 min) [h]
3,8-p-Menthanedilinoleate [PMDL] | presence of high levels of PMD released from the skin at the early stage and then through a decrease in the PMD levels over period of time | initial sharp increase in the concentration of PMD | a trend of decrease in the levels of PMDL on the skin | simultaneous increase in the level of PMD on the skin | an increase in linoleic acid level over the 15 to 60 min period followed by a decrease at 150 min; also recorded: increase in linoleic on treated skin in first hour followed by a decrease | substantially higher in the treated skin samples compared to the untreated skin | – | – | – | – | –
CC1CCC(C(C)(C)O)C(O)C1 (centres unmarked) [PMD, 3,8-p-menthanediol, reference compound] | – | – | – | – | – | – | 2.5 | decreased as the leave on time increased from 0 to 150 minutes; also recorded: decrease of PMD | decreased as the leave on time proceeded from 0 to 300 minutes | up to 5 hours | 2

Reference: patent US6696490B2, “Slow release insect repellent compounds and process for delivering active” (priority 2002, dated 2004)
